Measurements taken from patent publication US7393977B2, “Dicarboxylic acid salt of sibutramine” (CJ Cheiljedang Corporation, priority 2005, dated 2008).
Structures can show the parent of a compound that is named as a salt.

Legend:
mouse = details: cited from earlier work
rat = details: cited from earlier work
[1] = Non-hygroscopicity evaluation (water content by Karl-Fisher titrator after exposure to humid air); format: physicochemical; details: for moisture absorption (in words): humid atmosphere of 95% relative humidity
Description: Then, the water content of the samples was measured using a Karl-Fisher titrator. In Table 4, the water content of an active ingredient is expressed as a percentage of water content by weight (weight %).

[2] = Stability to heat (storage at 60° C., residual proportion by HPLC); format: physicochemical; details: for residual proportion of the initial level of active ingredient: 60° C.; for heat stability (in words): compared with sibutramine hydrochloride monohydrate
Description: (§1) The stability of an active ingredient used in a pharmaceutical composition to heat and light is a very important physical property during formulation into tablets and capsules and long-term storage. […] In detail, each compound was stored at 60° C. After 1, 2 and 4 weeks, the residual proportion of the initial level of an active ingredient was measured by high performance liquid chromatography (HPLC). Also, fluorescent light was radiated at 25° C. using a light stability test chamber suitable for the ICH guideline, and after 1, 2 and 4 weeks, the residual proportion of the initial level of an active ingredient was measured by HPLC.

[3] = Stability to light (fluorescent light at 25° C., ICH light stability chamber, residual proportion by HPLC); format: physicochemical; details: for residual proportion of the initial level of active ingredient: fluorescent light, 25° C.; for photostability (in words): compared with sibutramine hydrochloride monohydrate
Description: as §1

[4] = Solubility evaluation in distilled water and at several pH values; details: 37 °C, thermodynamic from solid
[5] = 75% relative humidity at 25° C., 3 days
[6] = 95% relative humidity at 25° C., 1 week

SMILES	residual proportion of the initial level of active ingredient ([2]; 1 week)	residual proportion of the initial level of active ingredient ([2]; 2 weeks)	residual proportion of the initial level of active ingredient ([2]; 4 weeks)	residual proportion of the initial level of active ingredient ([2]; Initial)	residual proportion of the initial level of active ingredient ([3]; 1 week)	residual proportion of the initial level of active ingredient ([3]; 2 weeks)	residual proportion of the initial level of active ingredient ([3]; Initial)	water content (weight %) [1, 5] [%]	water content (weight %) [1, 6] [%]	water content (weight %) ([1]; Initial) [%]	moisture absorption (in words) [1]	heat stability (in words) [2]	photostability (in words) [3]	residual proportion of the initial level of active ingredient ([3]; 4 weeks)	other results
Cl [HCl, hydrochloric acid]															LD50 in mouse (i.p.) (mouse): 40 mg/kg; LD50 in rat (oral) (rat): 900 mg/kg
CC(C)CC(N(C)C)C1(c2ccc(Cl)cc2)CCC1 (centres unmarked) [Sibutramine HCl monohydrate, Sibutramine hydrochloride monohydrate, reference compound]	1.000	0.999	0.999	1.000	1.000	0.999	1.000								water content (weight %) ([1]; 75% relative humidity at 25° C., 3 days, hydrochloride monohydrate): 5.49%; water content (weight %) ([1]; 95% relative humidity at 25° C., 1 week, hydrochloride monohydrate): 5.5%; water content (weight %) ([1]; Initial, hydrochloride monohydrate): 5.49%; residual proportion of the initial level of active ingredient ([3]; 4 weeks, hydrochloride monohydrate): 0.998; solubility ([4]; pH 1.2, simulated gastric fluid): 13.4 mg/mL; solubility ([4]; pH 4, aqueous buffer): 9.58 mg/mL; solubility ([4]; pH 5.3, aqueous buffer): 6.58 mg/mL; solubility ([4]; pH 6.8, aqueous buffer): 23.1 mg/mL; solubility ([4]; pH 7.4, aqueous buffer): 9.2 mg/mL; solubility ([4]; distilled water, water): 26.2 mg/mL
CC(C)CC(N(C)C)C1(c2ccc(Cl)cc2)CCC1 (centres unmarked) [Sibutramine malonate, sibutramine malonate]	1.000	0.999	0.999	1.000	1.000	0.999	1.000	0.02	0.03	0.03	did not absorb moisture	equal to those of sibutramine hydrochloride monohydrate	equal to those of sibutramine hydrochloride monohydrate	0.999	
CC(C)CC(N(C)C)C1(c2ccc(Cl)cc2)CCC1 (centres unmarked) [Sibutramine oxalate, sibutramine oxalate]	1.000	0.999	0.999	1.000	1.000	0.999	1.000	0.03	0.02	0.02	did not absorb moisture	equal to those of sibutramine hydrochloride monohydrate	equal to those of sibutramine hydrochloride monohydrate	0.999	
